Columns and labels:
[1] = system: skin roughness; assay: Score of skin roughness, visual ranking after two-week coating on cheeks; assay type: in vivo, women; conditions: average, 4 = severe
From the text: (§1) Compounds Ia1 -Ia18 prepared respectively in Referential Examples 1, 2 and 3 and following the procedures of these referential examples, compounds Ib1 -Ib5 prepared respectively in Referential Example 4 and following the procedure of the referential example, compounds Id1 -Id5 prepared respectively in Referential Example 5 and following the procedure of the referential example, compounds Ie1 -Ie4 prepared respectively in Referential Examples 6-9, and conventional compounds Ic1 -Ic13, Ie5 -Ie14 and II1 -II12 were used separately. Mixtures (Invention Products 1), each of which had been formulated by mixing vaseline and the compound (I or II) at a weight ratio of 3:1, and vaseline (Comparative Product 1) were evaluated in skin conductance and skin roughness by the following methods.
(§2) Chosen as volunteers in winter were 10 women of 20-50 years of old who had skin roughness on their both cheeks. Different external skin care preparations were coated separately on the left and right cheeks of each volunteer for two weeks. On the following day of the completion of the two-week coating test, tests were conducted with respect to the following properties.
Skin roughness was observed visually and ranked in accordance with the following standard. Each score was indicated by an average value.
Score Ranking of skin roughness
0 No skin roughness was observed.
1 Slight skin roughness was observed.
2 Skin roughness was observed.
3 Rather severe skin roughness was observed.
4 Severe skin roughness was observed.
Using separately the compounds used in Example 1, external skin care preparations (emulsified cosmetic preparations) of their corresponding compositions shown below in Table 2 were formulated. Their effects for the improvement of skin roughness were evaluated in the same manner as in Example 1.

[2] = system: horny layer; assay: Skin conductance (water content of horny layer) after two-week coating on cheeks; assay type: in vivo, women; parameters: key: conductance meter reading; ≤5 = severe roughness, ≥20 = no roughness; conditions: Invention Product 1: vaseline and compound 3:1 by weight; two weeks; 20° C., 40% humidity; 5 and smaller = severe roughness, 20 or greater = no substantial roughness
From the text: as §1, §2
After washing the face with warm water of 37° C., each volunteer was allowed to rest for 20 minutes in a room which was air-conditioned at 20° C. and 40% humidity. The water content of their horny layer was measured by a skin conductance meter (manufactured by IBS Company). A smaller conductance value indicates greater skin roughness. Conductance values of 5 and smaller indicate severe skin roughness. On the contrary, no substantial skin roughness is observed where this value is 20 or greater.

[3] = Invention product 2: emulsified cosmetic, compound 1.0 wt. %, glyceryl ether 2.0 wt. %, 0 = none
[4] = Invention product 3: emulsified cosmetic, compound 1.0 wt. %, arginine monocetylphosphate 2.0 wt. %, 0 = none
[5] = Invention product 4: emulsified cosmetic, compound 1.0 wt. %, polyoxyethylene (20) sorbitan stearate 1.0 and sorbitan monostearate 1.0 wt. %, 0 = none
[6] = Invention Product 1: vaseline and compound 3:1 by weight, two weeks, 0 = no roughness

| Compound | Score of skin roughness [1, 3] | Score of skin roughness [1, 4] | Score of skin roughness [1, 5] | Skin conductance [2] | Score of skin roughness [1, 6] |
| --- | --- | --- | --- | --- | --- |
| CCCCCCCCCCCCCCCCCC(=O)N(CC(=O)O)CC(O)COCCCCCCCCCCCCCC (stereo not shown) [Compound Ic1] | 0.7 | 0.9 | 1.2 | 14 | – |
| CCCCCCCCCCCCCCCCCC(=O)N(CC(=O)O)CC(O)COCCCCCCCCCCCCCC (stereo not shown) [Compound Ic2] | 0.6 | 0.8 | 1.1 | 15 | – |
| CCCCCCCCCCCCCCCCCC(=O)N(CC(=O)O)CC(O)CCCCCCCCCCCCCCCC (stereo not shown) [Compound Ic3] | 1.0 | 1.3 | 1.6 | 11 | – |
| CCCCCCCCCCCCCCCCCC(=O)N(CC(=O)O)CC(O)CCCCCCCCCCCCCCCC (stereo not shown) [Compound Ic4] | 0.8 | 1.0 | 1.3 | 13 | – |
| CCCCCCCCCCCCCCCCOCC(O)CN(C(=O)CCCCCCCCCCCCCCC)C(C)C(=O)O (stereo not shown) [Compound Ic5] | 0.8 | 1.0 | 1.3 | 13 | – |
| CCCCCCCCCCCCCCCCOCC(O)CN(C(=O)CCCCCCCCCCCCCCC)C(Cc1ccccc1)C(=O)O (stereo not shown) [Compound Ic6] | 0.9 | 1.2 | 1.5 | 12 | – |
| CCCCCCCCCCCCCCCCOCC(O)CN(C(=O)CCCCCCCCCCCCCCC)C(C(=O)O)C(C)C (stereo not shown) [Compound Ic7] | 0.6 | 0.8 | 1.1 | 15 | – |
| CCCCCCCCCCCCCCCCOCC(O)CN(C(=O)CCCCCCCCCCCCCCC)C(CO)C(=O)O (stereo not shown) [Compound Ic8] | 0.4 | 0.6 | 0.9 | 18 | – |
| CCCCCCCCCCCCCCCCOCC(O)CN(C(=O)CCCCCCCCCCCCCCC)C(CCSC)C(=O)O (stereo not shown) [Compound Ic9] | 0.5 | 0.7 | 1.0 | 16 | – |
| CCCCCCCCCCCCCCCCOCC(O)CN(C(=O)CCCCCCCCCCCCCCC)C(CC(=O)O)C(=O)O (stereo not shown) [Compound Ic10] | 0.6 | 0.8 | 1.1 | 15 | – |
| CCCCCCCCCCCCCCCCOCC(O)CN(C(=O)CCCCCCCCCCCCCCC)C(CCC(=O)O)C(=O)O (stereo not shown) [Compound Ic11] | 0.8 | 1.0 | 1.3 | 13 | – |
| CCCCCCCCCCCCCCCCOCC(O)CN(C(=O)CCCCCCCCCCCCCCC)C(Cc1c[nH]cn1)C(=O)O (stereo not shown) [Compound Ic12] | 1.0 | 1.3 | 1.6 | 11 | – |
| CCCCCCCCCCCCCCCCOCC(O)CN(C(=O)CCCCCCCCCCCCCCC)C(Cc1c[nH]c2ccccc12)C(=O)O (stereo not shown) [Compound Ic13] | 1.1 | 1.4 | 1.7 | 10 | – |
| CCCCCCCCCCCCCCCCCC(=O)N(CCO)CC(O)CCCCCCCCCCCCCC (stereo not shown) [Compound Id1, N-(2-hydroxyethyl)-N-2-hydroxyhexa-decyloctadecanamide] | 0.2 | 0.4 | 0.7 | 21 | 1.0 |
| CCCCCCCCCCCCCCCCC(O)CN(CCO)C(=O)CCCCCCCCC (stereo not shown) [Compound Id2] | 0.3 | 0.5 | 0.8 | 18 | – |
| CCCCCCCCCCC(O)CN(CCO)C(=O)CCCCCCCCC (stereo not shown) [Compound Id3] | 0.5 | 0.8 | 1.1 | 13 | – |
| CCCCCCCCCCCCCCCCCC(=O)N(CCO)CC(O)CCCCCCCCCC (stereo not shown) [Compound Id4] | 0.3 | 0.5 | 0.8 | 17 | – |
| CCCCCCCC/C=C\CCCCCCCC(=O)N(CCO)CC(O)CCCCCCCCCCCCCCCC (stereo not shown) [Compound Id5] | 0.1 | 0.3 | 0.6 | 25 | – |
| CCCCCCCCCCCCCCCCOCC(O)CN(CCOC1O[C@H](CO)[C@@H](O)[C@H](O)[C@H]1O)C(=O)CCCCCCCCCCCCCCC (stereo partly shown) [Compound Ie1, N-(3-hexadecyloxy-2-hydroxypropyl)-N-(2-O-glucopyranosyl)ethylhexadecanamide] | 0.4 | 0.6 | 0.9 | 25 | – |
| CCCCCCCCCCCCCCCCOCC(O)CN(CCO[C@@H]1O[C@H](CO)[C@@H](O[C@@H]2O[C@H](CO)[C@H](O)[C@H](O)[C@H]2O)[C@H](O)[C@H]1O)C(=O)CCCCCCCCCCCCCCC (stereo partly drawn) [Compound Ie2, N-(3-hexadecyloxy-2-hydroxypropyl)-N-[2-O-(4-β-D-galactopyranosyl-β-D-glucopyranosyl)ethyl]hexadecanamide] | 0.4 | 0.5 | 0.8 | 29 | – |
| CCCCCCCCCCCCCCCCOCC(O)CN(CCO[C@@H]1O[C@H](CO)[C@@H](O)[C@H](O)[C@H]1NC(C)=O)C(=O)CCCCCCCCCCCCCCC (stereo partly shown) [Compound Ie3] | 0.3 | 0.4 | 0.7 | 31 | – |
| CCCCCCCCCCCCCCCCOCC(O)CN(CCO[C@]1(C(=O)O)C[C@H](O)[C@@H](NC(C)=O)[C@H]([C@H](O)[C@H](O)CO)O1)C(=O)CCCCCCCCCCCCCCC (stereo partly drawn) [Compound Ie4, N-(3-hexadecyloxy-2-hydroxypropyl)-N-[2-O-(5-acetamido-3,5-dideoxy-α-D-glycero-β-D-galacto-2-nonuropyranosyl)ethyl]hexadecanamide] | 0.2 | 0.2 | 0.4 | 33 | 0.5 |
| CCCCCCCCCCCCCCCCOCC(O)CN(CCOP(=O)(O)OCCNC)C(=O)CCCCCCCCCCCCCCC (stereo not shown) [Compound Ie6] | 0.8 | 0.9 | 1.4 | 16 | – |
| CCCCCCCCCCCCCCCCOCC(O)CN(CCOP(=O)(O)OCCNCc1ccccc1)C(=O)CCCCCCCCCCCCCCC (stereo not shown) [Compound Ie8] | 0.6 | 1.1 | 1.3 | 15 | – |
| CCCCCCCCCCCCCCCCCC(=O)N(CCOP(=O)([O-])OCC[N+](CC)(CC)CC)CC(O)COCCCCCCCCCCCCCC (stereo not shown) [Compound Ie9] | 0.6 | 0.6 | 1.0 | 18 | – |
| CCCCCCCCCCOCC(O)CN(CCOP(=O)(O)OCCNCCc1ccccc1)C(=O)CCCCCCCCC (stereo not shown) [Compound Ie10] | 1.0 | 1.2 | 1.8 | 11 | – |
| CCCCCCCC/C=C\CCCCCCCCOCC(O)CN(CCOP(=O)([O-])OCC[N+](C)(C)C)C(=O)CCCCCCCCCCCCCCCCC (stereo not shown) [Compound Ie12] | 0.9 | 0.9 | 1.5 | 13 | – |
| CCCCCCCCCCCCCCCCOCC(CN(CCO)C(=O)CCCCCCCCCCCCCCC)OP(=O)([O-])OCC[N+](C)(C)C (stereo not shown) [Compound Ie13] | 0.9 | 1.1 | 1.5 | 11 | – |
| CCCCCCCCCCCCCCCCOCC(CN(CCOP(=O)([O-])OCC[N+](C)(C)C)C(=O)CCCCCCCCCCCCCCC)OP(=O)([O-])OCC[N+](C)(C)C (stereo not shown) [Compound Ie14] | 1.2 | 1.4 | 1.9 | 10 | – |

Source: patent US4985547A, “External skin care preparation” (Kao Corporation, priority 1987, dated 1991)
